# Measurements: PMC7385619, “A triple action CDK4/6-PI3K-BET inhibitor with augmented cancer cell cytotoxicity” (Cell Discovery, 2020)
# Where two headings read alike, the source gives them in different places.
# How the values were obtained:
# Experiment in all cases: KINOMEscan assay (Eurofins DiscoverX)
# Assay type in all cases: binding
# kinome (kinase panel) [1] = biological target: T1, kinome (kinase panel) (Homo sapiens, UniProt P31749); conditions: AKT1; 1000 nM; read-out: Percent Control
# T1 construct: purchased Eurofins DiscoverX
# kinome (kinase panel) [2] = biological target: T2, kinome (kinase panel) (Homo sapiens, UniProt Q00535); conditions: CDK5; 1000 nM; read-out: Percent Control
# T2 construct: purchased Eurofins DiscoverX
# kinome (kinase panel) [3] = biological target: T3, kinome (kinase panel) (Homo sapiens, UniProt P29597); conditions: 1000 nM, read-out: Percent Control
# T3 construct: purchased Eurofins DiscoverX
# kinome (kinase panel) [4] = biological target: T4, kinome (kinase panel) (Homo sapiens, UniProt P10721, T670I/V559D); conditions: read-out: Percent Control
# T4 construct: purchased Eurofins DiscoverX
# kinome (kinase panel) [5] = biological target: T5, kinome (kinase panel) (Homo sapiens, UniProt P45983); conditions: JNK1 (Entrez MAPK8); 1000 nM; read-out: Percent Control
# T5 construct: purchased Eurofins DiscoverX
# kinome (kinase panel) [6] = biological target: T6, kinome (kinase panel) (Homo sapiens, UniProt P06213); conditions: INSR; 1000 nM; read-out: Percent Control
# T6 construct: purchased Eurofins DiscoverX
# kinome (kinase panel) [7] = biological target: T7, kinome (kinase panel) (Homo sapiens, UniProt P25098); conditions: GRK2 (Entrez ADRBK1); 1000 nM; read-out: Percent Control
# T7 construct: purchased Eurofins DiscoverX
# kinome (kinase panel) [8] = biological target: T8, kinome (kinase panel) (Homo sapiens, UniProt P08069); conditions: IGF1R; 1000 nM; read-out: Percent Control
# T8 construct: purchased Eurofins DiscoverX
# kinome (kinase panel) [9] = biological target: T9, kinome (kinase panel) (Homo sapiens, UniProt Q6XUX3); conditions: RIPK5 (DSTYK); 1000 nM; read-out: Percent Control
# T9 construct: purchased Eurofins DiscoverX
# kinome (kinase panel) [10] = biological target: T10, kinome (kinase panel) (Homo sapiens, UniProt Q9Y6M4); conditions: CSNK1G3; 1000 nM; read-out: Percent Control
# T10 construct: purchased Eurofins DiscoverX
# kinome (kinase panel) [11] = biological target: T11, kinome (kinase panel) (Homo sapiens, UniProt P49759); conditions: CLK1; 1000 nM; read-out: Percent Control
# T11 construct: purchased Eurofins DiscoverX
# kinome (kinase panel) [12] = biological target: T12, kinome (kinase panel) (Homo sapiens, UniProt Q8WTQ7); conditions: GRK7; 1000 nM; read-out: Percent Control
# T12 construct: purchased Eurofins DiscoverX
# kinome (kinase panel) [13] = biological target: T13, kinome (kinase panel) (Homo sapiens, UniProt Q9UL54); conditions: TAOK2; 1000 nM; read-out: Percent Control
# T13 construct: purchased Eurofins DiscoverX
# kinome (kinase panel) [14] = biological target: T14, kinome (kinase panel) (Homo sapiens, UniProt Q9BQI3); conditions: EIF2AK1; 1000 nM; read-out: Percent Control
# T14 construct: purchased Eurofins DiscoverX
# kinome (kinase panel) [15] = biological target: T15, kinome (kinase panel) (Homo sapiens, UniProt P16234); conditions: PDGFRA; 1000 nM; read-out: Percent Control
# T15 construct: purchased Eurofins DiscoverX
# kinome (kinase panel) [16] = biological target: T16, kinome (kinase panel) (Homo sapiens, UniProt P51957); conditions: NEK4; 1000 nM; read-out: Percent Control
# T16 construct: purchased Eurofins DiscoverX
# kinome (kinase panel) [17] = biological target: T17, kinome (kinase panel) (Homo sapiens, UniProt P35626); conditions: GRK3 (Entrez ADRBK2); 1000 nM; read-out: Percent Control
# T17 construct: purchased Eurofins DiscoverX
# kinome (kinase panel) [18] = biological target: T18, kinome (kinase panel) (Homo sapiens, UniProt P36507); conditions: MEK2 (Entrez MAP2K2); 1000 nM; read-out: Percent Control
# T18 construct: purchased Eurofins DiscoverX
# kinome (kinase panel) [19] = biological target: T19, kinome (kinase panel) (Homo sapiens, UniProt Q15375); conditions: EPHA7; 1000 nM; read-out: Percent Control
# T19 construct: purchased Eurofins DiscoverX
# kinome (kinase panel) [20] = biological target: T20, kinome (kinase panel) (Homo sapiens, UniProt P21860); conditions: ERBB3; 1000 nM; read-out: Percent Control
# T20 construct: purchased Eurofins DiscoverX
# kinome (kinase panel) [21] = biological target: T21, kinome (kinase panel) (Homo sapiens, UniProt P35916); conditions: FLT4; 1000 nM; read-out: Percent Control
# T21 construct: purchased Eurofins DiscoverX
# kinome (kinase panel) [22] = biological target: T22, kinome (kinase panel) (Homo sapiens, UniProt Q05397); conditions: FAK (Entrez PTK2); 1000 nM; read-out: Percent Control
# T22 construct: purchased Eurofins DiscoverX
# kinome (kinase panel) [23] = biological target: T23, kinome (kinase panel) (Homo sapiens, UniProt P49841); conditions: GSK3B; 1000 nM; read-out: Percent Control
# T23 construct: purchased Eurofins DiscoverX
# kinome (kinase panel) [24] = biological target: T24, kinome (kinase panel) (Homo sapiens, UniProt P42680); conditions: TEC; 1000 nM; read-out: Percent Control
# T24 construct: purchased Eurofins DiscoverX
# kinome (kinase panel) [25] = biological target: T25, kinome (kinase panel) (Homo sapiens, UniProt P07333); conditions: 1000 nM, read-out: Percent Control
# T25 construct: purchased Eurofins DiscoverX
# kinome (kinase panel) [26] = biological target: T26, kinome (kinase panel) (Homo sapiens, UniProt Q15831); conditions: LKB1 (Entrez STK11); 1000 nM; read-out: Percent Control
# T26 construct: purchased Eurofins DiscoverX
# kinome (kinase panel) [27] = biological target: T27, kinome (kinase panel) (Homo sapiens, UniProt O95747); conditions: OSR1 (Entrez OXSR1); 1000 nM; read-out: Percent Control
# T27 construct: purchased Eurofins DiscoverX
# kinome (kinase panel) [28] = biological target: T28, kinome (kinase panel) (Homo sapiens, UniProt O00141); conditions: SGK (SGK1); 1000 nM; read-out: Percent Control
# T28 construct: purchased Eurofins DiscoverX
# kinome (kinase panel) [29] = biological target: T29, kinome (kinase panel) (Homo sapiens, UniProt P09769); conditions: FGR; 1000 nM; read-out: Percent Control
# T29 construct: purchased Eurofins DiscoverX
# kinome (kinase panel) [30] = biological target: T30, kinome (kinase panel) (Homo sapiens, UniProt Q8IW41); conditions: MAPKAPK5; 1000 nM; read-out: Percent Control
# T30 construct: purchased Eurofins DiscoverX
# kinome (kinase panel) [31] = biological target: T31, kinome (kinase panel) (Homo sapiens, UniProt P11362); conditions: FGFR1; 1000 nM; read-out: Percent Control
# T31 construct: purchased Eurofins DiscoverX
# kinome (kinase panel) [32] = biological target: T32, kinome (kinase panel) (Homo sapiens, UniProt Q8IYT8); conditions: ULK2; 1000 nM; read-out: Percent Control
# T32 construct: purchased Eurofins DiscoverX
# T25 sequence (P07333 20-972): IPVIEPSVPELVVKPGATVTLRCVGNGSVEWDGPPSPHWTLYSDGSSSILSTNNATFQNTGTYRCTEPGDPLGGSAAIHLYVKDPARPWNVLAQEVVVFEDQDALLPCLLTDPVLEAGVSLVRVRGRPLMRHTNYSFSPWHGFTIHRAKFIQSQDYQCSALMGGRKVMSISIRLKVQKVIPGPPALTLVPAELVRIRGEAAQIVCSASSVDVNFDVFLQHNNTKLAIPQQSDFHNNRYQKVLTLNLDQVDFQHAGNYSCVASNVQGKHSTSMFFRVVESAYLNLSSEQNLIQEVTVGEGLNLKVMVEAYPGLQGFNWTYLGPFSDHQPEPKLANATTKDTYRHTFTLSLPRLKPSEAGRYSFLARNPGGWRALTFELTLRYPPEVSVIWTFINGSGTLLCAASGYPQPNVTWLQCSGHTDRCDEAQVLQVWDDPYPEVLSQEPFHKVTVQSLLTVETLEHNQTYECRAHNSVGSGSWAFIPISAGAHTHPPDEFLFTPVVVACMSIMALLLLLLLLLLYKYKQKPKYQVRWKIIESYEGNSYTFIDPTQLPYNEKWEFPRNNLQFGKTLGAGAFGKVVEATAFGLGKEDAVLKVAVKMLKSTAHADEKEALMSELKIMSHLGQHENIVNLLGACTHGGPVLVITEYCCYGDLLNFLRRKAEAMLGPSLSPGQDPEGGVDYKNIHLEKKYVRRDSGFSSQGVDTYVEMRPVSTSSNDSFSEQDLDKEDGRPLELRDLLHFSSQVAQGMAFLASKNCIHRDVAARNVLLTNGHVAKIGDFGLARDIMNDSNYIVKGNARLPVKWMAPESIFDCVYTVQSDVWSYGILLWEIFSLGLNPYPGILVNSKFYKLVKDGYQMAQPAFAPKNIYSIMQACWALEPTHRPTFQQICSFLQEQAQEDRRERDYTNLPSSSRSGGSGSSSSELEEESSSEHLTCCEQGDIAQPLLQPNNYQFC
# T3 sequence (P29597 whole entry): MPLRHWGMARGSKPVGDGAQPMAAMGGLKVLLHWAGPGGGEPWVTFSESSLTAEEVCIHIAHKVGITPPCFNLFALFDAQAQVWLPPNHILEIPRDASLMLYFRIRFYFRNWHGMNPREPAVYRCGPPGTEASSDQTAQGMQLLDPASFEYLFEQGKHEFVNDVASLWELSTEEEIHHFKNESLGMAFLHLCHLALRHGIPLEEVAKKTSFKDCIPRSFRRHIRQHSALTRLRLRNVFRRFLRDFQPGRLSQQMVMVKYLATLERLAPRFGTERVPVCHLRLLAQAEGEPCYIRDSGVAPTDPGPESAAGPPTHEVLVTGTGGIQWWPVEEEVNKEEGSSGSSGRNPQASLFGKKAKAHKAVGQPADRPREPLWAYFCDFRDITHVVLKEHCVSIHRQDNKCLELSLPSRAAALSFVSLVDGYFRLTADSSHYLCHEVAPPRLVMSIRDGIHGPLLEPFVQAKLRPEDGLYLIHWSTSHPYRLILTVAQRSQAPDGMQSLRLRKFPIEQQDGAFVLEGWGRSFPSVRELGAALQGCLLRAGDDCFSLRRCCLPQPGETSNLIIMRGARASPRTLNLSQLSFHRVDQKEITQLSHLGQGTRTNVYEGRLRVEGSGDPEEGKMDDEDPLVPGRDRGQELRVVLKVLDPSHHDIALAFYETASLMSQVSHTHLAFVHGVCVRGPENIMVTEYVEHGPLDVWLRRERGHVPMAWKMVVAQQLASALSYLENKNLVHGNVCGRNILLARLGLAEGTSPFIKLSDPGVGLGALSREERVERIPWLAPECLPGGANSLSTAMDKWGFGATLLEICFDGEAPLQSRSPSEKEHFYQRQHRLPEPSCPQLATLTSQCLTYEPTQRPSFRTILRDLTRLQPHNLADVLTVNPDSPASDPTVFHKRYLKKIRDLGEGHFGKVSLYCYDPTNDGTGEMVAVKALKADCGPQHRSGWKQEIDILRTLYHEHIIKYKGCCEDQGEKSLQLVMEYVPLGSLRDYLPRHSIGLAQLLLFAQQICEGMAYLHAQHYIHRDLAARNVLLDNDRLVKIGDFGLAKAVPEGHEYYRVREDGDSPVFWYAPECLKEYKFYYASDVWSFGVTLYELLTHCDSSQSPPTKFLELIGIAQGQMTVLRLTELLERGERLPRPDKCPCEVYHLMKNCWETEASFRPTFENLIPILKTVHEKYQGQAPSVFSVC
# T24 sequence (P42680 whole entry): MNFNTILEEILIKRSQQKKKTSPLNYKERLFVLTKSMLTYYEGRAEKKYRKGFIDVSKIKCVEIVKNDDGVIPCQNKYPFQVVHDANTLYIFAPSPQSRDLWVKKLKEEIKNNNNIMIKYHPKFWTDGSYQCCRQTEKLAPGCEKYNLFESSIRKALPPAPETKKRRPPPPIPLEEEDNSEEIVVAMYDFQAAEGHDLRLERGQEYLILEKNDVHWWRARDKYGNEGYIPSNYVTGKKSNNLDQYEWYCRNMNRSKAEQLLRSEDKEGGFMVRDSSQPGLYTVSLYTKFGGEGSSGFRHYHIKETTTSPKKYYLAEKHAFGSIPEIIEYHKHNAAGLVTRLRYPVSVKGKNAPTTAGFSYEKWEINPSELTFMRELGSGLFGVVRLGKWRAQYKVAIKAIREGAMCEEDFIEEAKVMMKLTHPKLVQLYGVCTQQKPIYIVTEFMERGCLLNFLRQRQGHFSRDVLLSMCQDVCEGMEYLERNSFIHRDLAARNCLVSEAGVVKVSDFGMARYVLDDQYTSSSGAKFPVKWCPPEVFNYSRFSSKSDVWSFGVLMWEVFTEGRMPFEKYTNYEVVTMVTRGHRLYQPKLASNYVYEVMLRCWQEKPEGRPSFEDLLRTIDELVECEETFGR
# T26 sequence (Q15831 whole entry): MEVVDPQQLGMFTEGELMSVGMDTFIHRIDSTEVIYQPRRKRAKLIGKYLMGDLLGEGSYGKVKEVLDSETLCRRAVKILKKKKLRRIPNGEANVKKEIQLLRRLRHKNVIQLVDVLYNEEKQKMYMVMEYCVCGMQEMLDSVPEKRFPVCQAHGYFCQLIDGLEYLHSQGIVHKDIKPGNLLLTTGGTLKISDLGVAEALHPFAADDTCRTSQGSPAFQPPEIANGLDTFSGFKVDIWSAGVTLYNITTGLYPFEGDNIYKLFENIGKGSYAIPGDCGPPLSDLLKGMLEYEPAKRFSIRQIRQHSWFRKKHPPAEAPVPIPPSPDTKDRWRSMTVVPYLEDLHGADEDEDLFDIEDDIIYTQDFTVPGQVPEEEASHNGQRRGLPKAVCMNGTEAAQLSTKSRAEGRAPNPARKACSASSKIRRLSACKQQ
# T18 sequence (P36507 whole entry): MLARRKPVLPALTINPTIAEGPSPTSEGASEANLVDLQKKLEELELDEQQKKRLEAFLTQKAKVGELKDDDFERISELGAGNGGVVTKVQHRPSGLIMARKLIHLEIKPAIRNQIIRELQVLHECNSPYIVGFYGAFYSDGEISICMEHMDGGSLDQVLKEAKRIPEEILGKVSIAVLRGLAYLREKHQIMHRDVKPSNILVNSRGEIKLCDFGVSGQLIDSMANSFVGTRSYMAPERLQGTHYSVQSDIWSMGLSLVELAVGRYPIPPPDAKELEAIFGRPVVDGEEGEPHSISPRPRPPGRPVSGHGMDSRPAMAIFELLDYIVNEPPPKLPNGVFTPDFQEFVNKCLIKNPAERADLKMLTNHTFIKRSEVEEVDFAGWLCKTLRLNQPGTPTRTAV
# T16 sequence (P51957 whole entry): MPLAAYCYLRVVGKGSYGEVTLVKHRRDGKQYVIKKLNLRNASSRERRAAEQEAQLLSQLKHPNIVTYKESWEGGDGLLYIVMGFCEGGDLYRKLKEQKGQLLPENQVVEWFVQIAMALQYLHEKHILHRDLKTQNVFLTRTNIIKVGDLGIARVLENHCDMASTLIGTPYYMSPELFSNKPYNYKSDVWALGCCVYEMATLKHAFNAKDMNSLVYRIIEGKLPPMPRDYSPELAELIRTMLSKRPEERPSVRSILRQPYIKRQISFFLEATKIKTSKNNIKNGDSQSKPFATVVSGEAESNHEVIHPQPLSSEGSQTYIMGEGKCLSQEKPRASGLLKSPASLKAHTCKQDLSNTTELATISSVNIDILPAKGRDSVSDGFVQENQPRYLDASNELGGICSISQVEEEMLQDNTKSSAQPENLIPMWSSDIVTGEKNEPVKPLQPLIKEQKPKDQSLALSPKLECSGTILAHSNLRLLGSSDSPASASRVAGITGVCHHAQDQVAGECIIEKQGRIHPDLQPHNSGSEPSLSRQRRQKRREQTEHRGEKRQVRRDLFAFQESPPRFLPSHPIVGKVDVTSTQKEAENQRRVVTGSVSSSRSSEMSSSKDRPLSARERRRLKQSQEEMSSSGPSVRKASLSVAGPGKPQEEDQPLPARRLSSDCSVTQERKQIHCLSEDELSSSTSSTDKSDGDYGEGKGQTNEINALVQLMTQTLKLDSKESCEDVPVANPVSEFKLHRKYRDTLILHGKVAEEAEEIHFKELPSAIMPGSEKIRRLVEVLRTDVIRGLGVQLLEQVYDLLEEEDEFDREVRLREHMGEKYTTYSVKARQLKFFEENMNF
# T5 sequence (P45983 whole entry): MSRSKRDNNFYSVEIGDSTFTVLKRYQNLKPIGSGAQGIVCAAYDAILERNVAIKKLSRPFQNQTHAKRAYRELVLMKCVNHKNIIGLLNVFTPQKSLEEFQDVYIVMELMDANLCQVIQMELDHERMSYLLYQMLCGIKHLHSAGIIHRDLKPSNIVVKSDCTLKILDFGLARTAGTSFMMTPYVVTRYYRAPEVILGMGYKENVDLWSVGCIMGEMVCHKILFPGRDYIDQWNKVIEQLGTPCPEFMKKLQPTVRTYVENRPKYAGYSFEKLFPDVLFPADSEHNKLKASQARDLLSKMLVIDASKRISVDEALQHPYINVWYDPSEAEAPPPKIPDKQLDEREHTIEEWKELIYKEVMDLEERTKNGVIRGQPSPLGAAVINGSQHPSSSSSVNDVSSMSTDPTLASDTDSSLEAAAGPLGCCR
smiles,measurement,setting,value
CN(C)C(=O)c1cc2cnc(Nc3ccc(-c4csc5c(=O)cc(N6CCOCC6)oc45)cc3)nc2n1C1CCCC1 [SRX3177],remaining binding at 1 µM,kinome (kinase panel) [1],100%
same,remaining binding at 1 µM,kinome (kinase panel) [2],90%
same,remaining binding at 1 µM,kinome (kinase panel) [3]; TYK2(JH1domain-catalytic),69%
same,remaining binding at 1 µM,kinome (kinase panel) [3]; TYK2(JH2domain-pseudokinase),9.7%
same,remaining binding at 1 µM,kinome (kinase panel) [4],100%
same,remaining binding at 1 µM,kinome (kinase panel) [5],62%
same,remaining binding at 1 µM,kinome (kinase panel) [6],47%
same,remaining binding at 1 µM,kinome (kinase panel) [7],73%
same,remaining binding at 1 µM,kinome (kinase panel) [8],100%
same,remaining binding at 1 µM,kinome (kinase panel) [9],87%
same,remaining binding at 1 µM,kinome (kinase panel) [10],100%
same,remaining binding at 1 µM,kinome (kinase panel) [11],100%
same,remaining binding at 1 µM,kinome (kinase panel) [12],100%
same,remaining binding at 1 µM,kinome (kinase panel) [13],20%
same,remaining binding at 1 µM,kinome (kinase panel) [14],79%
same,remaining binding at 1 µM,kinome (kinase panel) [15],60%
same,remaining binding at 1 µM,kinome (kinase panel) [16],89%
same,remaining binding at 1 µM,kinome (kinase panel) [17],46%
same,remaining binding at 1 µM,kinome (kinase panel) [18],50%
same,remaining binding at 1 µM,kinome (kinase panel) [19],100%
same,remaining binding at 1 µM,kinome (kinase panel) [20],59%
same,remaining binding at 1 µM,kinome (kinase panel) [21],88%
same,remaining binding at 1 µM,kinome (kinase panel) [22],90%
same,remaining binding at 1 µM,kinome (kinase panel) [23],75%
same,remaining binding at 1 µM,kinome (kinase panel) [24],95%
same,remaining binding at 1 µM,kinome (kinase panel) [25]; CSF1R-autoinhibited,60%
same,remaining binding at 1 µM,kinome (kinase panel) [25]; CSF1R,100%
same,remaining binding at 1 µM,kinome (kinase panel) [26],85%
same,remaining binding at 1 µM,kinome (kinase panel) [27],88%
same,remaining binding at 1 µM,kinome (kinase panel) [28],56%
same,remaining binding at 1 µM,kinome (kinase panel) [29],97%
same,remaining binding at 1 µM,kinome (kinase panel) [30],72%
same,remaining binding at 1 µM,kinome (kinase panel) [31],100%
same,remaining binding at 1 µM,kinome (kinase panel) [32],79%
